In US11999746B2, “Compounds” (GlaxoSmithKline Intellectual Property Development Limited, priority 2014, dated 2024):

Assays:
[1] = biological target: T1, Lp-PLA2 in human plasma (Homo sapiens, UniProt Q13093); experiment: (3a) Lp-PLA2 human plasma Thio-PAF assay; type: biochemical; conditions: (3a) Thio-PAF assay, pooled human plasma; Examples 1-265 and 413-430 were tested here; read-out: pIC50 in the Lp-PLA2 human plasma assay (converted)
T1 construct: from tissue; host or cells: pooled human plasma
T1 sequence (Q13093 22-441): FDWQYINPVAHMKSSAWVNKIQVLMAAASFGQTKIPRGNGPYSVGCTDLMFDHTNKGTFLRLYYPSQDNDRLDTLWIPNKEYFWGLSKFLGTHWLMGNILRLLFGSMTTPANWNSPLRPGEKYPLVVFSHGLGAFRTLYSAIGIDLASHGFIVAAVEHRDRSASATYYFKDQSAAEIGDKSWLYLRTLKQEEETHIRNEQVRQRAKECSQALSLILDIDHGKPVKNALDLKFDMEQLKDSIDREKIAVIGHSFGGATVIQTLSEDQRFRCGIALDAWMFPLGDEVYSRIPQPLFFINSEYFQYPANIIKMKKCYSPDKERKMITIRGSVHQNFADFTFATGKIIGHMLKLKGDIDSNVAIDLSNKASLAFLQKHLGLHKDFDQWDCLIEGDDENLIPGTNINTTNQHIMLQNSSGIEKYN
In short: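 Endogenous Lp-PLA2 activity in frozen pooled human plasma measured as thiol release from 2-thio-PAF, detected by CPM fluorescence (ex 380/em 485). Compound preincubation 30 min; 2-min reaction in HEPES pH 7.4 buffer with NEM, stopped with 5% TFA, read 40 min later at room temperature; values as pIC50.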

[2] = biological target: T2, recombinant human Lp-PLA2 (Homo sapiens, UniProt Q13093); experiment: (1a) PED6 assay, recombinant human Lp-PLA2 (rhLp-PLA2); type: biochemical; conditions: Examples 1-167 and 413-430 were tested here, one experiment or average of multiple experiments, read-out: rhLp-PLA2 (pIC50) (converted)
T2 sequence (Q13093 22-441): T1 sequence (Q13093 22-441)
In short: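 PED6 (2 μM final after 1:1 addition of 4 μM stock) cleavage by rhLp-PLA2 (4 nM working solution) in 50 mM HEPES pH 7.4, 150 mM NaCl, 1 mM CHAPS; compounds preincubated with enzyme 30 minutes, reaction 20 min at room temperature. Fluorescence at ex 480/em 540; pIC50 from curve fit.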

IC50 [1] [nM]	IC50 [2] [nM]	Structure (SMILES)
≤ 10000	≤ 100	O=c1nc(OCc2cc(F)c(F)c(F)c2)cc2n1C[C@@H]1COCCN21 [Example E123, (R)-7-((3,4,5-trifluorobenzyl)oxy)-3,4,11,11atetrahydropyrimido[6′,1′:2,3]imidazo[5,1-c][1,4] oxazin-9(1H)-one]
≤ 10000	≤ 100	O=c1nc(OCc2ccc(F)cc2F)cc2n1C[C@H]1COCCN21 [Example E126, (S)-7-((2,4-difluorobenzyl)oxy)-3,4,11,11a-tetrahydropyrimido[6′,1′:2,3]imidazo[5,1-c][1,4] oxazin-9(1H)-one]
≤ 100	≤ 100	O=c1nc(OCc2cccc(F)c2F)cc2n1C[C@H]1COCCN21 [Example E127, (S)-7-((2,3-difluorobenzyl)oxy)-3,4,11,11a-tetrahydropyrimido[6′,1′:2,3]imidazo[5,1-c][1,4] oxazin-9(1H)-one]
≤ 100	≤ 100	O=c1nc(OCc2cc(F)cc(F)c2)cc2n1C[C@H]1COCCN21 [Example E129, (S)-7-((3,5-difluorobenzyl)oxy)-3,4,11,11a-tetrahydropyrimido[6′,1′:2,3]imidazo[5,1-c][1,4] oxazin-9(1H)-one]
≤ 10000	≤ 100	O=c1nc(OCc2ccc(F)cc2F)cc2n1C[C@@H]1COCCN21 [Example E130, (R)-7-((2,4-difluorobenzyl)oxy)-3,4,11,11a-tetrahydropyrimido[6′,1′:2,3]imidazo[5,1-c][1,4] oxazin-9(1H)-one]
≤ 100	≤ 100	O=c1nc(OCc2cccc(F)c2F)cc2n1C[C@@H]1COCCN21 [Example E131, (R)-7-((2,3-difluorobenzyl)oxy)-3,4,11,11a-tetrahydropyrimido[6′,1′:2,3]imidazo[5,1-c][1,4] oxazin-9(1H)-one]
≤ 10000	≤ 100	O=c1nc(OCc2cc(F)cc(F)c2)cc2n1C[C@@H]1COCCN21 [Example E133, (R)-7-((3,5-difluorobenzyl)oxy)-3,4,11,11a-tetrahydropyrimido[6′,1′:2,3]imidazo[5,1-c][1,4] oxazin-9(1H)-one]
≤ 100	≤ 100	O=c1nc(OCc2cc(F)c(F)c(F)c2)cc2n1C[C@@H]1CCOCN21 [Example E139, (S)-3-((3,4,5-trifluorobenzyl)oxy)-8,9,9a,10-tetrahydropyrimido[6′,1′:2,3]imidazo[1,5-c][1,3] oxazin-1(6H)-one]
≤ 100	≤ 100	O=c1nc(OCc2cc(F)c(F)c(F)c2)cc2n1C[C@H]1COCN21 [Example E146, (S)-6-((3,4,5-trifluorobenzyl)oxy)-10,10a-dihydro-1H-oxazolo[3′,4′:3,4]imidazo[1,2-c] pyrimidin-8(3H)-one]

Further lines, the compound ahead of its results:

Structure (SMILES)	IC50 [1] [nM]	IC50 [2] [nM]
Cc1cc(Oc2c(F)cc(COc3cc4n(c(=O)n3)C[C@H]3COCCN43)cc2F)ccn1 [Example E124, (S)-7-((3,5-difluoro-4-((2-methylpyridin-4-yl)oxy)benzyl)oxy)-3,4,11,11atetrahydropyrimido[6′,1′:2,3]imidazo[5,1-c][1,4]oxazin-9(1H)-one]	≤ 100	0.501
Cc1ccc(Oc2c(F)cc(COc3cc4n(c(=O)n3)C[C@H]3COCCN43)cc2F)cn1 [Example E125, (S)-7-((3,5-difluoro-4-((6-methylpyridin-3-yl)oxy)benzyl)oxy)-3,4,11,11atetrahydropyrimido[6′,1′:2,3]imidazo[5,1-c][1,4]oxazin-9(1H)-one]	≤ 100	0.0631
O=c1nc(OCc2cccc(F)c2)cc2n1C[C@H]1COCCN21 [Example E128, (S)-7-((3-fluorobenzyl)oxy)-3,4,11,11a-tetrahydropyrimido[6′,1′:2,3]imidazo[5,1-c][1,4] oxazin-9(1H)-one]	≤ 100	10
O=c1nc(OCc2cccc(F)c2)cc2n1C[C@@H]1COCCN21 [Example E132, (R)-7-((3-fluorobenzyl)oxy)-3,4,11,11a-tetrahydropyrimido[6′,1′:2,3]imidazo[5,1-c][1,4] oxazin-9(1H)-one]	≤ 10000	≤ 100
O=c1nc(OCc2cc(F)c(Oc3ccnc(C(F)(F)F)c3)c(F)c2)cc2n1C[C@@H]1CCOCN21 [Example E134, (S)-3-((3,5-difluoro-4-((2-(trifluoromethyl)pyridin-4-yl)oxy)benzyl)oxy)-8,9,9a,10-tetrahydropyrimido[6′,1′:2,3]imidazo[1,5-c][1,3]oxazin-1(6H)-one]	≤ 100	≤ 1
O=c1nc(OCc2cc(F)c(Oc3ccnc(C(F)(F)F)c3)c(F)c2)cc2n1C[C@H]1CCOCN21 [Example E135, (R)-3-((3,5-difluoro-4-((2-(trifluoromethyl)pyridin-4-yl)oxy)benzyl)oxy)-8,9,9a,10-tetrahydropyrimido[6′,1′:2,3]imidazo[1,5-c][1,3]oxazin-1(6H)-one]	≤ 100	≤ 1
Cn1cc(Oc2c(F)cc(COc3cc4n(c(=O)n3)C[C@@H]3CCOCN43)cc2F)cn1 [Example E136, (S)-3-((3,5-difluoro-4-((1-methyl-1H-pyrazol-4-yl)oxy)benzyl)oxy)-8,9,9a,10-tetrahydropyrimdo[6′,1′:2,3]imidazo[1,5-c][1,3]oxazin-1(6H)-one]	≤ 10000	≤ 100
Cn1cc(Oc2c(F)cc(COc3cc4n(c(=O)n3)C[C@H]3CCOCN43)cc2F)cn1 [Example E137, (R)-3-((3,5-difluoro-4-((1-methyl-1H-pyrazol-4-yl)oxy)benzyl)oxy)-8,9,9a,10-tetrahydropyrimido[6′,1′:2,3]imidazo[1,5-c][1,3]oxazin-1(6H)-one]	≤ 10000	≤ 100
O=c1nc(OCc2cccc(F)c2)cc2n1C[C@@H]1CCOCN21 [Example E138, (S)-3-((3-fluorobenzyl)oxy)-8,9,9a,10-tetrahydropyrimido[6′,1′:2,3]imidazo[1,5-c][1,3] oxazin-1(6H)-one]	≤ 10000	≤ 100
O=c1nc(OCc2cc(F)c(OC3(CCF)CC3)c(F)c2)cc2n1C[C@@H]1CCOCN21 [Example E140, (S)-3-((3,5-difluoro-4-(1-(2-fluoroethyl)cyclopropoxy)benzyl)oxy)-8,9,9a,10-tetrahydropyrimido[6′,1′:2,3]imidazo[1,5-c][1,3]oxazin-1(6H)-one]	≤ 10000	≤ 100
O=c1nc(OCc2cc(F)c(Oc3ccnc(C(F)(F)F)c3)c(F)c2)cc2n1C[C@H]1COCN21 [Example E141, (S)-6-((3,5-difluoro-4-((2-(trifluoromethyl)pyridin-4-yl)oxy)benzyl)oxy)-10,10a-dihydro-1H-oxazolo[3′,4′:3,4]imidazo[1,2-c]pyrimidin-8(3H)-one]	≤ 100	≤ 1
O=c1nc(OCc2cc(F)c(Oc3ccnc(C(F)(F)F)c3)c(F)c2)cc2n1C[C@@H]1COCN21 [Example E142, (R)-6-((3,5-difluoro-4-((2-(trifluoromethyl)pyridin-4-yl)oxy)benzyl)oxy)-10,10a-dihydro-1H-oxazolo[3′,4′:3,4]imidazo[1,2-c]pyrimidin-8(3H)-one]	≤ 100	≤ 1
Cn1cc(Oc2c(F)cc(COc3cc4n(c(=O)n3)C[C@H]3COCN43)cc2F)cn1 [Example E143, (S)-6-((3,5-difluoro-4-((1-methyl-1H-pyrazol-4-yl)oxy)benzyl)oxy)-10,10a-dihydro-1H-oxazolo[3′,4′:3,4]imidazo[1,2-c]pyrimidin-8(3H)-one]	≤ 10000	≤ 100
Cn1cc(Oc2c(F)cc(COc3cc4n(c(=O)n3)C[C@@H]3COCN43)cc2F)cn1 [Example E144, (R)-6-((3,5-difluoro-4-((1-methyl-1H-pyrazol-4-yl)oxy)benzyl)oxy)-10,10a-dihydro-1H-oxazolo[3′,4′:3,4]imidazo[1,2-c]pyrimidin-8(3H)-one]	≤ 10000	≤ 100
O=c1nc(OCc2ccc(Cl)c(F)c2)cc2n1C[C@H]1COCN21 [Example E145, (S)-6-((4-chloro-3-fluorobenzyl)oxy)-10,10a-dihydro-1H-oxazolo[3′,4′:3,4]imidazo[1,2-c] pyrimidin-8(3H)-one]	≤ 10000	≤ 100
O=c1nc(OCc2cc(F)cc(F)c2)cc2n1C[C@H]1COCN21 [Example E147, (S)-6-((3,5-difluorobenzyl)oxy)-10,10a-dihydro-1H-oxazolo[3′,4′:3,4]imidazo[1,2-c] pyrimidin-8(3H)-one]	≤ 10000	≤ 100
O=c1nc(OCc2cccc(F)c2)cc2n1C[C@H]1COCN21 [Example E148, (S)-6-((3-fluorobenzyl)oxy)-10,10a-dihydro-1H-oxazolo[3′,4′:3,4]imidazo[1,2-c]pyrimidin-8(3H)-one]	≤ 10000	≤ 100
